The values that follow come from DBAASP.

Holding throughout (assay): ≥ marks a high value that may be exact or a test limit, other limits are often not marked, values filed in µg/mL are converted to µM
In assay [1] the test system is Escherichia coli JW0013.
Assay [2] has as its system Staphylococcus epidermidis ATCC 12228.
The subject of assay [3] is Bacillus subtilis ATCC 23857.
The test system of assay [4] is Escherichia coli ATCC 25922.
The test system of assay [5] is Staphylococcus aureus ATCC 25923.
For assay [6], the system named is Pseudomonas aeruginosa ATCC 9027.
For assay [7], the system named is Staphylococcus aureus ATCC 6538.
Assay [8] has as its system Escherichia coli B.
In assay [9] the test system is Bacillus subtilis 168.
For assay [10], the system named is Staphylococcus aureus.
Assay [11] concerns Pseudomonas aeruginosa.
The subject of assay [12] is Bacillus cereus.
Assay [13] relates to Staphylococcus aureus ATCC 2592.
Assay [14] has as its system Candida albicans ATCC 2002.
In assay [15] the test system is Shigella dysenteriae.
Assay [16] concerns Escherichia coli.
The subject of assay [17] is Klebsiella pneumoniae ATCC 700603.
Assay [18] concerns Micrococcus luteus ATCC 9341.
For assay [19], the system named is Bacillus subtilis ATCC 6633.

Molecules are shown by their SMILES. Values after ≈ are worked out from the molar mass of the structure shown.

Usually MIC stands for the lowest concentration found to suppress growth. A high value points to a need for much substance. In the case of `CC[C@H](C)[C@H](NC(=O)[C@H](CCCN=C(N)N)NC(=O)[C@H](CCCN=C(N)N)NC(=O)[C@@H]1CCCN1C(=O)[C@@H]1CCCN1C(=O)[C@H](CCCN=C(N)N)NC(=O)[C@@H]1CCCN1C(=O)[C@H](CCCN=C(N)N)NC(=O)[C@@H]1CCCN1C(=O)[C@H](CCCCN)NC(=O)[C@H](CCCN=C(N)N)NC(=O)[C@@H]1CCCN1C(=O)[C@H](CCCN=C(N)N)NC(=O)[C@H](CCCCN)NC(=O)[C@H](CC(=O)O)NC(=O)[C@@H](N)C(C)C)C(=O)N[C@@H](Cc1ccc(O)cc1)C(=O)N[C@@H](CC(N)=O)C(=O)N[C@@H](CCCN=C(N)N)C(N)=O` [VDKRPRKPRPRPPRRIYNR], the minimal inhibitory concentration (MIC) in assay [1] was 1.34 µM (≈ 3.3 µg/mL).
For the compound `CC[C@H](C)[C@H](N)C(=O)N[C@@H](CC(C)C)C(=O)NCC(=O)N[C@H](C(=O)N[C@H](C(=O)N[C@@H](CC(C)C)C(=O)NCC(=O)N[C@@H](CC(C)C)C(=O)N[C@@H](CC(C)C)C(=O)N[C@@H](CCCCN)C(=O)N[C@@H](C)C(=O)N[C@@H](CC(C)C)C(N)=O)[C@@H](C)CC)[C@@H](C)O` [ILGTILGLLKAL], the MIC worked out at 16 µM (≈ 19.6 µg/mL) in assay [2], 8 µM (≈ 9.79 µg/mL) in [3], 64 µM (≈ 78.3 µg/mL) in assay [4] and 16 µM (≈ 19.6 µg/mL) in [5].
Regarding `CC[C@H](C)[C@H](NC(=O)[C@H](CCCN=C(N)N)NC(=O)[C@H](CCCN=C(N)N)NC(=O)[C@@H]1CCCN1C(=O)[C@@H]1CCCN1C(=O)[C@H](CCCN=C(N)N)NC(=O)[C@H](CCCCN)NC(=O)[C@H](CCCN=C(N)N)NC(=O)[C@@H]1CCCN1C(=O)[C@H](CCCCN)NC(=O)[C@H](Cc1ccc(O)cc1)NC(=O)[C@@H]1CCCN1C(=O)[C@H](CCCN=C(N)N)NC(=O)[C@H](CCCCN)NC(=O)[C@H](CC(=O)O)NC(=O)[C@@H](N)C(C)C)C(=O)N[C@@H](Cc1ccc(O)cc1)C(=O)N[C@@H](CC(N)=O)C(=O)N[C@@H](CCCN=C(N)N)C(N)=O` [VDKRPYKPRKRPPRRIYNR], the MIC in [1] is 1.24 µM (≈ 3.1 µg/mL).
`CC[C@H](C)[C@H](NC(=O)[C@H](CCCN=C(N)N)NC(=O)[C@H](CCCN=C(N)N)NC(=O)[C@@H]1CCCN1C(=O)[C@@H]1CCCN1C(=O)[C@H](CCCN=C(N)N)NC(=O)[C@H](CCCN=C(N)N)NC(=O)[C@H](CCCN=C(N)N)NC(=O)[C@@H]1CCCN1C(=O)[C@H](CCCCN)NC(=O)[C@H](Cc1ccc(O)cc1)NC(=O)[C@@H]1CCCN1C(=O)[C@H](CCCCN)NC(=O)[C@H](CCCCN)NC(=O)[C@H](CC(=O)O)NC(=O)[C@@H](N)C(C)C)C(=O)N[C@@H](Cc1ccc(O)cc1)C(=O)N[C@@H](CC(N)=O)C(=O)N[C@@H](CCCN=C(N)N)C(N)=O` [VDKKPYKPRRRPPRRIYNR] showed an MIC in [1] of 0.481 µM (≈ 1.2 µg/mL).
The same measure, in the same setting: to `CC[C@H](C)[C@H](NC(=O)[C@H](CCCN=C(N)N)NC(=O)[C@H](CCCN=C(N)N)NC(=O)[C@@H]1CCCN1C(=O)[C@@H]1CCCN1C(=O)[C@H](CCCN=C(N)N)NC(=O)[C@@H]1CCCN1C(=O)[C@H](CCCN=C(N)N)NC(=O)[C@@H]1CCCN1C(=O)[C@H](CC(C)C)NC(=O)[C@H](Cc1ccc(O)cc1)NC(=O)[C@@H]1CCCN1C(=O)[C@@H]1CCCN1C(=O)[C@H](CCCCN)NC(=O)[C@H](Cc1ccccc1)NC(=O)[C@@H](N)C(C)C)C(=O)N[C@@H](Cc1ccc(O)cc1)C(=O)N[C@@H](CC(N)=O)C(=O)N[C@@H](CCCN=C(N)N)C(N)=O` [VFKPPYLPRPRPPRRIYNR] belongs 1.98 µM (≈ 4.8 µg/mL).
In the case of `CC[C@H](C)[C@H](NC(=O)[C@H](CCCCN)NC(=O)[C@H](CCCCN)NC(=O)[C@@H](NC(=O)[C@@H](NC(=O)[C@H](CCCCN)NC(=O)[C@H](CCCCN)NC(=O)[C@@H](NC(=O)[C@@H](NC(=O)[C@H](CCCCN)NC(=O)[C@H](CCCCN)NC(=O)[C@@H](NC(=O)[C@@H](NC(=O)CN)[C@@H](C)CC)C(C)C)[C@@H](C)CC)C(C)C)[C@@H](C)CC)C(C)C)C(N)=O` [GIVKKIVKKIVKKI], the MIC in [6] stood at 21 µM (≈ 33.5 µg/mL); in assay [3], 1.7 µM (≈ 2.71 µg/mL); in assay [4], 22 µM (≈ 35 µg/mL); in assay [7], 128 µM (≈ 204 µg/mL).
On to `CC[C@H](C)[C@H](NC(=O)CN)C(=O)N[C@H](C(=O)N[C@@H](C)C(=O)NCC(=O)N[C@H](C(=O)N[C@H](C(=O)N[C@H](C(=O)N[C@@H](CCCCN)C(=O)N[C@H](C(=O)N[C@@H](CCCCN)C(=O)N[C@@H](C)C(N)=O)[C@@H](C)CC)[C@@H](C)CC)[C@@H](C)CC)[C@@H](C)CC)[C@@H](C)CC` [GIIAGIIIKIKA], for which the results for the minimum inhibitory concentration (MIC) in assay [3] and in [4] were not below 128 µM and more than 128 µM, respectively.
Consider `CC[C@H](C)[C@H](NC(=O)[C@H](CC(C)C)NC(=O)[C@H](Cc1cnc[nH]1)NC(=O)CNC(=O)[C@H](CC(C)C)NC(=O)[C@@H](NC(=O)[C@H](CCCCN)NC(=O)[C@H](CO)NC(=O)[C@H](Cc1c[nH]c2ccccc12)NC(=O)[C@H](CCSC)NC(=O)CN)[C@@H](C)CC)C(N)=O` [GMWSKILGHLI], for which the MIC was 7 µM (≈ 8.78 µg/mL) in [8], 3.5 µM (≈ 4.39 µg/mL) in assay [9], 15.5 µM (≈ 19.4 µg/mL) in [10] and 100 µM (≈ 125 µg/mL) in [11].
As to `CSCC[C@@H]1NC(=O)[C@H](CC(C)C)NC(=O)[C@H](C)NC(=O)[C@H](CCCN=C(N)N)NC(=O)[C@H](Cc2ccccc2)NC(=O)[C@H](CC(C)C)NC(=O)CNC(=O)[C@H](CCCCN)NC(=O)[C@@H](NC(=O)[C@H](CCCN=C(N)N)NC(=O)[C@@H]2CCCN2C(=O)[C@@H](NC(=O)[C@H](CO)NC(=O)[C@H](Cc2ccc(O)cc2)NC(=O)[C@H](C)NC(=O)[C@@H](N)CCCCN)[C@@H](C)O)CSSC[C@@H](C(=O)N[C@@H](Cc2c[nH]c3ccccc23)C(=O)N[C@@H](CC(C)C)C(N)=O)NC1=O` [KAYSTPRCKGLFRALMCWL], the MIC in assay [12] was 22.3 µM (≈ 49.9 µg/mL); in assay [13] it was 5.57 µM (≈ 12.5 µg/mL); in assay [14], 22.3 µM (≈ 49.9 µg/mL); in assay [15], 2.78 µM (≈ 6.24 µg/mL); in [4], 5.57 µM (≈ 12.5 µg/mL); in assay [11], 22.3 µM (≈ 49.9 µg/mL).
Turning to `CC[C@H](C)[C@H](NC(=O)[C@H](CCCCN)NC(=O)[C@H](CCCCN)NC(=O)[C@H](C)NC(=O)[C@@H](NC(=O)[C@H](C)NC(=O)[C@H](CC(C)C)NC(=O)[C@H](CC(C)C)NC(=O)[C@H](C)NC(=O)[C@H](CCCCN)NC(=O)[C@H](CC(C)C)NC(=O)[C@H](CC(N)=O)NC(=O)CN)C(C)C)C(=O)N[C@@H](CC(C)C)C(N)=O` [GNLKALLAVAKKIL], the MIC in assay [16] was found to be 8 µM (≈ 11.6 µg/mL); in assay [3] it was 4 µM (≈ 5.8 µg/mL); in [5] it was 32 µM (≈ 46.4 µg/mL); in assay [17] it was 16 µM (≈ 23.2 µg/mL).
Take `CC[C@H](C)[C@H](NC(=O)[C@H](CC(C)C)NC(=O)[C@@H](N)Cc1ccccc1)C(=O)N[C@H](C(=O)N[C@@H](CCCN=C(N)N)C(=O)N[C@@H](CCCN=C(N)N)C(=O)N1CCC[C@H]1C(=O)N[C@H](C(=O)N[C@H](C(=O)N[C@@H](CC(C)C)C(=O)NCC(=O)N[C@@H](CC(C)C)C(=O)N[C@@H](CC(C)C)C(N)=O)C(C)C)[C@@H](C)CC)[C@@H](C)CC` [FLIIRRPIVLGLL]: the MIC in assay [13] is 6.57 µM (≈ 9.99 µg/mL); in assay [14], 8.21 µM (≈ 12.5 µg/mL); in [4], 19.7 µM (≈ 30 µg/mL).
In the case of `CC[C@H](C)[C@H](N)C(=O)N[C@@H](CC(C)C)C(=O)N1CCC[C@H]1C(=O)N[C@@H](Cc1cnc[nH]1)C(=O)N[C@@H](CCCCN)C(=O)N[C@@H](Cc1cnc[nH]1)C(=O)N1CCC[C@H]1C(=O)N[C@@H](Cc1cnc[nH]1)C(=O)N[C@@H](Cc1cnc[nH]1)C(=O)N1CCC[C@H]1C(=O)N[C@@H](Cc1cnc[nH]1)C(=O)N[C@@H](CCCN=C(N)N)C(=O)N[C@@H](CCCN=C(N)N)C(N)=O` [ILPHKHPHHPHRR], in assay [18], the MIC is not below 100 µM.
With `CC[C@H](C)[C@@H]1NC(=O)[C@@H]2CCCN2C(=O)[C@@H](NC(=O)[C@H](Cc2ccccc2)NC(=O)[C@H](CC(C)C)NC(=O)[C@@H](NC(=O)[C@@H]2CCCN2C(=O)[C@@H](NC(=O)[C@@H](NC(=O)[C@H](CCCCN)NC(=O)[C@H](Cc2ccccc2)NC(=O)[C@H](C)NC(=O)[C@@H](NC(=O)[C@H](CCCCN)NC(=O)[C@H](CC(C)C)NC(=O)[C@H](CC(C)C)NC(=O)[C@@H](NC(=O)[C@H](CO)NC(=O)[C@H](CC(C)C)NC(=O)[C@@H](N)Cc2ccccc2)[C@@H](C)O)C(C)C)C(C)C)C(C)C)[C@@H](C)O)CSSC[C@@H](C(N)=O)NC(=O)[C@H](CCCCN)NC(=O)[C@H](CCCCN)NC(=O)[C@H]([C@@H](C)O)NC1=O` [FLSTLLKVAFKVVPTLFCPITKKC], the minimal inhibitory concentration (MIC) was found to be 0.434 µM (≈ 1.17 µg/mL) in assay [13]; 1.74 µM (≈ 4.69 µg/mL) in [14]; 3.48 µM (≈ 9.37 µg/mL) in [15]; 6.95 µM (≈ 18.7 µg/mL) in assay [4]; 1.74 µM (≈ 4.69 µg/mL) in assay [19].
